Source: ChEMBL document CHEMBL5143602, “Design, synthesis and antibacterial evaluation of pleuromutilin derivatives” (Bioorg Med Chem, 2022)
≈ marks a conversion by molar mass, not a printed value. Calls of active or inactive are those of the source. The calls are words filed in the database; no cut-off is given here.

Key:
Staphylococcus aureus [1] = experiment: Antibacterial activity against methicillin-sensitive Staphylococcus aureus ATCC 29213 assessed as inhibition of bacterial growth incubated for 18 hrs by two-fold serial dilution method; type: functional
Staphylococcus aureus [2] = experiment: Antibacterial activity against methicillin-resistant Staphylococcus aureus ATCC 43300 assessed as inhibition of bacterial growth incubated for 18 hrs by two-fold serial dilution method; type: functional
Enterococcus faecium = experiment: Antibacterial activity against Enterococcus faecium ATCC19434 assessed as inhibition of bacterial growth incubated for 18 hrs by two-fold serial dilution method; type: functional
[3] = system: Staphylococcus epidermidis; experiment: Antibacterial activity against Staphylococcus epidermidis ATCC12228 assessed as inhibition of bacterial growth incubated for 18 hrs by two-fold serial dilution method; type: functional
[4] = system: Mycoplasmoides pneumoniae; experiment: Antibacterial activity against Mycoplasma pneumoniae ATCC15531 assessed as inhibition of bacterial growth incubated for 18 hrs by two-fold serial dilution method; type: functional
[5] = system: Mycoplasmoides pneumoniae; experiment: Antibacterial activity against Mycoplasma pneumoniae ATCC29342 assessed as inhibition of bacterial growth incubated for 18 hrs by two-fold serial dilution method; type: functional
[6] = system: Mycoplasmoides pneumoniae; experiment: Antibacterial activity against drug resistant Mycoplasma pneumoniae assessed as inhibition of bacterial growth incubated for 18 hrs by two-fold serial dilution method; type: functional
Staphylococcus aureus [7] = experiment: Bactericidal activity against methicillin-resistant Staphylococcus aureus ATCC 43300 assessed as decrease in bacterial propagation at 2 to 8 times MIC and measured after 24 hrs by time kill curve assay relative to control; type: functional, organism-based
HepG2 = experiment: Cytotoxicity against human HepG2 cells assessed as cell growth inhibition measured after 72 hrs by MTT assay; type: functional, cell-based; conditions: HepG2, 72 h
U-87 MG = experiment: Cytotoxicity against human U87 cells assessed as cell growth inhibition measured after 72 hrs by MTT assay; type: functional, cell-based, U-87MG ATCC
HGC-27 = experiment: Cytotoxicity against human HGC-27 cells assessed as cell growth inhibition measured after 72 hrs by MTT assay; type: functional, cell-based; conditions: HGC-27, 72 h
HT-29 = experiment: Cytotoxicity against human HT-29 cells assessed as cell growth inhibition measured after 72 hrs by MTT assay; type: functional, cell-based; conditions: HT-29, 72 h
MCF7 = experiment: Cytotoxicity against human MCF7 cells assessed as cell growth inhibition measured after 72 hrs by MTT assay; type: functional, cell-based; conditions: MCF7, 72 h
Staphylococcus aureus [8] = experiment: Bactericidal activity against methicillin-resistant Staphylococcus aureus ATCC 43300 at 4 times MIC and measured after 24 hrs by time kill curve assay relative to control; type: functional, organism-based

Compound	MIC (Staphylococcus aureus [1]) [µg/mL]	MIC (Staphylococcus aureus [2]) [µg/mL]	MIC (Enterococcus faecium) [µg/mL]	MIC [3] [µg/mL]	MIC [4] [µg/mL]	MIC [5] [µg/mL]	MIC [6] [µg/mL]	Activity (Staphylococcus aureus [7])	IC50 (HepG2) [µM]	IC50 (U-87 MG) [µM]	IC50 (HGC-27) [µM]	IC50 (HT-29) [µM]	IC50 (MCF7) [µM]	Activity (Staphylococcus aureus [8])
C=C[C@]1(C)C[C@@H](OC(=O)CNC(=O)Nc2ccc(OC)cc2)[C@]2(C)[C@H](C)CC[C@]3(CCC(=O)[C@H]32)[C@@H](C)[C@@H]1O	0.0625 (≈ 0.119 µM)	0.5 (≈ 0.949 µM)	8 (≈ 15.2 µM)	> 64	0.125 (≈ 0.237 µM)	0.0625 (≈ 0.119 µM)	0.5 (≈ 0.949 µM)	Active	> 10	> 10	> 10	> 10	> 10	–
C=C[C@]1(C)C[C@@H](OC(=O)CNC(=O)Nc2ccccc2Br)[C@]2(C)[C@H](C)CC[C@]3(CCC(=O)[C@H]32)[C@@H](C)[C@@H]1O	0.25 (≈ 0.434 µM)	0.25 (≈ 0.434 µM)	32 (≈ 55.6 µM)	> 64	0.5 (≈ 0.869 µM)	0.5 (≈ 0.869 µM)	2 (≈ 3.47 µM)	–	> 10	> 10	> 10	> 10	> 10	–
C=C[C@]1(C)C[C@@H](OC(=O)CSCCN(CC)CC)[C@]2(C)[C@H](C)CC[C@]3(CCC(=O)[C@H]32)[C@@H](C)[C@@H]1O [TIAMULIN]	0.5 (≈ 1.01 µM)	0.25 (≈ 0.506 µM)	16 (≈ 32.4 µM)	32 (≈ 64.8 µM)	–	–	–	–	> 10	> 10	> 10	> 10	> 10	Active
